# Source: patent US8765808B2, “Treatment or prevention of cancer and precancerous disorders” (CHS Pharma, Inc., priority 2005, dated 2014)
# Like-named read-outs stand apart in the source and are kept apart here.
# How the values were obtained:
# [1] = tested on: RKO colon cancer cell line; experiment: MTS cell viability after pretreatment and oxidative stress, RKO colon cancer cells; format: cell-based, human; details: other NSAIDs at comparable active concentrations, compared to sulindac
# Protocol: RKO is a human colon carcinoma cell line developed by Michael Brattain [Brattain, 1984]. […] The cells were maintained in minimum essential medium (Eagle) supplemented with 2 mM L-glutamine, Earle's BSS containing 1.5 g/L sodium bicarbonate, 0.1 mM non-essential amino acids, 1.0 mM sodium pyruvate and 10% fetal bovine serum.
# Experiments were performed with the RKO colon cancer cells that were pretreated with 500 μM sulindac using TBHP.
# [2] = tested on: SCC-25 squamous cell skin cancer cell line; experiment: MTS cell viability after pretreatment and oxidative stress, SCC skin cancer cells; format: cell-based, human; details: for sensitizing skin cancer cells to killing by TBHP: other NSAIDs at comparable active concentrations, compared to sulindac; for cancer killing effect of epimers, SCC cells: 500 μM 24 hours, then TBHP 2 hours (FIG. 24); for enhancing the killing of skin cancer cells (SCC-25) when exposed to TBHP: 24 hr pretreatment with 500 μM sulindac sulfone, 500 μM SMO or 50 μM sulindac sulfide, TBHP 2 hr (FIG. 14)
# Protocol: SCC-25 is a human squamous cell carcinoma cell line developed by J G Rheinwald [Rheinwald, 1981]. […] The cells were maintained in minimum essential medium (Eagle) supplemented with 2 mM L-glutamine, Earle's BSS containing 1.5 g/L sodium bicarbonate, 0.1 mM non-essential amino acids, 1.0 mM sodium pyruvate and 10% fetal bovine serum.
# The experimental approach was to pretreat SCC cells with sulindac for 24 hr prior to exposure to TBHP for 2 hr. Sulindac (Sigma; S-8139) was freshly prepared as a 1M stock solution in 1M Tris.Cl, pH 8.0. SCC cells were suspended in culture medium containing 10% fetal bovine serum at a cell density of 6×10^5 cells/ml. Cell suspensions containing 500 μM sulindac or no sulindac (Control) were plated in 96 well microtiter plates with a total of 6×10^4 cells per well. The plates were incubated for 24 hr at 37° C. in a 5% CO2 incubator. The culture medium was then removed and the cells washed once with fresh culture medium without serum. After removal of the wash solution, fresh culture medium without serum that contained the indicated final concentration of TBHP was added to the cells for 2 hrs. Serum was omitted from the medium during the two-hour exposure to TBHP since TBHP may be rapidly depleted in the presence of serum.
# Cancer Lung cells = experiment: Conversion of sulindac epimers to sulindac sulfide in whole cells, lung cancer; format: in vitro ADME; details: 200 μM epimer, 4 hours, serum-free medium
# Protocol: (§1) After the incubations, the cells were pelleted by low speed centrifugation and lysed by the addition of 200 μl of 100% acetonitrile, followed by vigorous vortexing. The lysate was centrifuged for 15 minutes at 14,000×g to pellet cell debris. 50 μl of the supernatant was transferred to an HPLC autosampler microvial. The separation of metabolites is carried out on a 4.6×75 mm C18 reverse-phase column. […] The metabolites are detected at a wavelength of 330 nm.
# (§2) The cells are incubated with 200 μM R- or S-Sulindac epimer for 4 hours in a defined, serum-free medium (EX-CELL^SM). After incubation, the cells are collected, rinsed and lysed with acetonitrile. The cytosolic contents are separated on a C-18 column.
# [3] = tested on: lung carcinoma cell line designated A549; experiment: MTS cell viability after pretreatment and oxidative stress, lung cancer cells
# Protocol: Cell viability was determined by the [sequence] 96®-Aqueous One Cell Proliferation Assay (Promega) according to the manufacturer's instructions. The assay utilizes a novel tetrazolium compound (3-(4,5-dimethylthiazol-2-yl)-5-(3-carboxymethoxyphenyl)-2-(4-sulfophenyl)-2H-tetrazolium; MTS) and an electron-coupling reagent (phenazine ethosulfate; PES). Metabolically active cells convert the MTS to a water-soluble formazan by the action of cellular dehydrogenases. The amount of formazan produced is measured by absorbance at 490 nm using a colorimetric microtiter plate reader (BIORAD; Model 2550). Absorbance is directly proportional to the number of viable cells.
# Experiments using similar methods were performed with a lung carcinoma cell line designated A549. […] Cells were grown in Ham's F12K medium supplemented with final concentrations of 2 mM L-glutamine, 1.6 g/L sodium bicarbonate and 10% fetal bovine serum. Cultures were maintained between 6×10^3-6×10^4 cells/cm^2 in standard tissue culture flasks. The protocol for pretreatment of cells with 500 μM sulindac followed by a two hour exposure to various concentrations of TBHP was the same as that described for the RKO colon cancer cells.
# Following a 24 hr pretreatment with 500 μM sulindac, the cells were washed once to remove the excess sulindac before exposure to TBHP for 2 hr.
# Normal lung cells = experiment: Conversion of sulindac epimers to sulindac sulfide in whole cells, normal lung; format: in vitro ADME; details: 200 μM epimer, 4 hours; for Amount Formed (sulindac sulfide): serum-free medium
# Protocol: as §1, §2
# [4] = tested on: neonatal rat cardiac myocytes; details: for Amount Formed (sulindac sulfide): Normal Cardiomyocyte, 200 μM epimer, 4 hours, serum-free medium
# Protocol: FIG. 23 is a graph showing the metabolic conversion of the R & S epimers of sulindac to the sulfide form in cardiac myocytes. The amount of sulindac sulfide formed by 10^6 cells incubated with 400 μM sulindac, R, S or RS mixture is measured as a function of time of incubation. […] The absorbance was measured at 330 nm.
# To inhibit fibroblast growth, 0.1 mM bromodeoxyuridine was included in the medium for the first 3-5 days after plating. Cell cultures are incubated with sulindac or its individual epimers for specified times.
# as §1, §2
# HeLa cancer cells = details: 200 μM epimer, 4 hours, serum-free medium
# Protocol: as §1, §2
# [5] = tested on: Cancer Skin (skin SCC) cells; details: 200 μM epimer, 4 hours, serum-free medium
# Protocol: as §1, §2
# [6] = tested on: Normal HEK skin cells (human neonatal epidermal keratinocytes); experiment: Intracellular ROS by indicator dye fluorescence, normal HEK skin cells; details: Table 4, alone or after Sul 500 uM
# Protocol: Experimental conditions: Normal HEK skin cells plated onto 6-well plates at cell density of 60-70% confluence. Sulindac (0.5 mM)×24 hours (cell density remained about the same) followed by TBHP×2 hours followed by ROS indicator dye (5 μM)×1 hour (Table 1).
# Human neonatal epidermal keratinocytes were plated into 6-well plates at a cell density of 60-70% confluence. The cultures were pretreated with sulindac (500 uM) for 34 hours followed by the addition of different concentrations of TBHP for 2 hours. During this period of time, the cell density in the 6-well plates remained the same (there was no increase in cell proliferation). This was followed by the addition of the ROS indicator dye.
# SCC skin cancer cells = experiment: Intracellular ROS by indicator dye fluorescence, SCC skin cancer cells
# Protocol: SCC skin cancer cells were plated onto 6-well plates at a cell density of 50-60% confluence. The cultures were pretreated with sulindac (500 uM) for 24 hours followed by the addition of TBHP (100 uM) for two hours. During this period of time, the cell density in the 6-well plates increased to 80-90% confluent.
# [7] = cited from earlier work
# [8] = tested on: precancerous growths and/or BCC's; experiment: Topical sulindac gel followed by hydrogen peroxide solution in patients; details: applied alone to the skin condition
# [9] = tested on: WM-266-4 Melanoma skin cell line; experiment: MTS cell viability after pretreatment and oxidative stress, melanoma cells; format: cell-based, human; details: sulindac sulfide pretreatment
# [10] = Table 2, Sul 0.5 mM 24 hours and/or TBHP 100 μM 2 hours
# [11] = Table 3, Sul 500 μM 24 hours and/or TBHP 100 μM 2 hours
compound,measurement,setting,value
CC(=O)Oc1ccccc1C(=O)O [Acetylsalicylic acid],sensitizing colon cancer cells to killing by TBHP,[1],ineffective
same,sensitizing skin cancer cells to killing by TBHP,[2],ineffective
"CC1=C(CC(=O)O)c2cc(F)ccc2/C1=C\c1ccc([S+](C)[O-])cc1 (stereo not shown) [R-epimer, R-sulindac sulfoxide]",Amount Formed (sulindac sulfide),Cancer Lung cells,7.5 picomoles
same,"cancer killing effect of epimers, lung cancer cells",[3],comparable in potency to the sulindac racemic mixture
same,R/S (%),Normal lung cells,6%
same,R/S (%),Normal lung cells; listed as R epimer,< 10%
same,Amount Formed (sulindac sulfide),Normal lung cells,2.2 picomoles
same,Amount Formed (sulindac sulfide),[4],11.6 picomoles
same,conversion to the sulfide compared to the S-epimer,"[4]; normal cardiac myocytes, 400 μM, time course (FIG. 23)",greater than 10 fold less conversion
same,Amount Formed (sulindac sulfide),HeLa cancer cells,9.3 picomoles
same,Amount Formed (sulindac sulfide),[5],35.3 picomoles
same,"cancer killing effect of epimers, SCC cells",[2],comparable in potency to the sulindac racemic mixture
"CC1=C(CC(=O)O)c2cc(F)ccc2/C1=C\c1ccc([S@+](C)[O-])cc1 [S-epimer, S-sulindac sulfoxide]",Amount Formed (sulindac sulfide),Cancer Lung cells,17.7 picomoles
same,"cancer killing effect of epimers, lung cancer cells",[3],comparable in potency to the sulindac racemic mixture
same,Amount Formed (sulindac sulfide),Normal lung cells,35 picomoles
same,Amount Formed (sulindac sulfide),[4],120.9 picomoles
same,Amount Formed (sulindac sulfide),HeLa cancer cells,7.9 picomoles
same,Amount Formed (sulindac sulfide),[5],57 picomoles
same,"cancer killing effect of epimers, SCC cells",[2],comparable in potency to the sulindac racemic mixture
"CC(C)(C)OO [TBHP, tert-butyl hydroperoxide]",viable cells without sulindac pretreatment,"[3]; 1.5-2.0 mM TBHP, 2 hr, untreated (no sulindac) cells",approximately 50%
same,% Cells containing ROS,[6]; TBHP 200 uM 2 hours,2%
same,fold increase compared to untreated control,[6]; TBHP 200 uM 2 hours,0 fold
same,% Cells containing ROS,[6]; TBHP 400 uM 2 hours,5%
same,fold increase compared to untreated control,[6]; TBHP 400 uM 2 hours,2 fold
same,% Cells containing ROS,[6]; TBHP 800 uM 2 hours,60%
same,fold increase compared to untreated control,[6]; TBHP 800 uM 2 hours,20 fold
same,% Cells with ROS Uptake by Fluorescence,SCC skin cancer cells; [10],11%
same,fold increase compared to untreated control,SCC skin cancer cells; [10],7 fold
same,% Cells containing ROS,SCC skin cancer cells; [11],11%
same,fold increase compared to untreated control,SCC skin cancer cells; [11],7 fold
same,"ROS levels in SCC skin cancer cells, agent alone",SCC skin cancer cells; sulindac 500 uM or TBHP 100 uM alone,enhanced the ROS levels
O=C(O)Cc1ccccc1Nc1c(Cl)cccc1Cl [diclofenac sodium],sensitizing colon cancer cells to killing by TBHP,[1],ineffective
same,sensitizing skin cancer cells to killing by TBHP,[2],ineffective
OO [hydrogen peroxide],skin irritation,"[7]; 3-8% hydrogen peroxide, 24 hours under occlusive dressing, intact and abraded skin, rabbits",nonirritating
same,skin irritation,"[7]; 10% hydrogen peroxide, 4 hour exposure",slight
same,skin irritation,[7]; 35% hydrogen peroxide,mild
same,classification as skin irritant by the European Union criteria,"[7]; hydrogen peroxide solutions of 35% or less, rabbits",would not be classified as skin irritants
same,effect on the precancerous or cancerous growth when applied alone,[8],no effect
CC(C)Cc1ccc(C(C)C(=O)O)cc1 (stereo not shown) [ibuprofen],sensitizing colon cancer cells to killing by TBHP,[1],ineffective
same,sensitizing skin cancer cells to killing by TBHP,[2],ineffective
CSc1ccc(/C=C2/C(C)=C(CC(=O)O)c3cc(F)ccc32)cc1 [sulindac sulfide],reducing the cell viability of lung cancer cells exposed to TBHP,"[3]; 250 μM sulindac sulfide 24 hr, TBHP 2 hr (FIG. 15)",had activity in reducing the cell viability
same,reducing the cell viability of melanoma cells exposed to TBHP,[9],had activity in reducing the cell viability
same,enhancing the killing of skin cancer cells (SCC-25) when exposed to TBHP,[2],not effective
CC1=C(CC(=O)O)c2cc(F)ccc2/C1=C\c1ccc(S(C)(=O)=O)cc1 [sulindac sulfone],killing effect in all cancer cell studies,"[3]; FIG. 15, 500 μM sulindac, 250 μM sulindac sulfone",most potent killing effect
same,enhancing the killing of skin cancer cells (SCC-25) when exposed to TBHP,[2],effective in enhancing the killing
sulindac methionine sulfoxide [SMO],enhancing the killing of skin cancer cells (SCC-25) when exposed to TBHP,[2],not effective
